Test results: patent US9237750B2, “Ornidazole and related compounds for use as herbicides” (RAMOT AT TEL-AVIV UNIVERSITY LTD., priority 2012, dated 2016)

Assays:
[1] = Stability in BG-11 medium lacking cells (LC-MS); type: physicochemical; settings: 0.1 mM, dark or light, four days
Experimental: Ornidazole (molecular mass 220 and 222 due to two isotopes of chlorine) or degradation products were sought by LC-MS. The chromatograms of samples from the first and fourth days are shown in FIG. 7B and FIG. 7C, respectively. The retention time and molecular mass of the isolated molecules are designated.
The concentrations of Ornidazole and its degradation product in the medium were determined during the growth of the cyanobacterium Anabaena PCC7120 and in media lacking cyanobacteria in the dark or under illumination. Ornidazole at 0.1 mM concentration was added to three growth tubes containing BG-11 medium: one growth tube was kept in the dark, the second under light conditions of 60 μmol photons m^−2 sec^−1 and the third tube, to which Anabaena cells were added, was also kept under similar light conditions. Samples from each tube were taken every day, separated on a C18 reverse phase HPLC column, and Ornidazole (molecular mass 220 and 222 due to two isotopes of chlorine) or degradation products were sought by LC-MS. A degradation product of molecular mass 184, identified as C7H9N3O3, was found in all three tubes.

[2] = molecular target: triose phosphate isomerase (Homo sapiens, UniProt P60174); settings: glycolytic triose phosphate isomerase; cited from earlier work
Sequence of triose phosphate isomerase (P60174 whole entry, species assumed): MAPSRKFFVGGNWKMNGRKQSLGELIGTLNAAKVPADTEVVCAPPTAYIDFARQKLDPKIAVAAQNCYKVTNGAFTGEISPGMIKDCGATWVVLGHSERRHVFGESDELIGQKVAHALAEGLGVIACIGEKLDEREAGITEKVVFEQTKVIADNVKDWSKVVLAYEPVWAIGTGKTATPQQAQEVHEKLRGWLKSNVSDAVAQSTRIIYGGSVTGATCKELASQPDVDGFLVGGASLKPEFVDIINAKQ

Lemna = experiment: PAM fluorescence parameters of aquatic plant; type: in vivo; settings: 1 mM Ornidazole in growth medium; actinic light 210 μmol photons×m^−2×sec^−1
Experimental: The fluorescence under dim (3 μmol photons×m^−2×sec^−1) and saturating (2000 μmol photons×m^−2×sec^−1, 0.8 sec) flash light (Fo and Fmax, respectively) of pre-darkened plants was determined in the presence or absence of 1 mM Ornidazole in the growth medium, using a PAM fluorimeter. Quantum yield and non-photochemical quenching (qN) were determined with saturating flashes under actinic light (210 μmol photons×m^−2×sec^−1).
The rate of net O2 exchange was determined using a Clark-type O2 electrode (Rank Brothers Ltd, UK). Fluorescent measurements (quantum yield, photochemical and non photochemical quenching) were determined using a modulated fluorometer (PAM, Walz, Germany) as described by Schreiber et al. (Schreiber U et al., 1986. fluorometer. Photosynth Res 10, 51-62) and Snir et al. (Snir A, et al., 2006. Photosynth Res 90, 233-242).
The effect of Ornidazole on photosynthesis was further examined in the aquatic plant Lemna. Lemna plants were collected from a pond at the Botanical garden of Tel Aviv University and kept in the pond water as a growth medium. The fluorescence under dim (3 μmol photons m^−2 sec^−1) and saturating (2000 μmol photons m^−2 sec^−1, 0.8 sec) flash light (Fo and Fmax, respectively) of pre-darkened plants was determined in the presence or absence of 1 mM Ornidazole in the growth medium, using a PAM fluorimeter (H. Walz, Germany). […]

Aldolase = experiment: Calvin cycle enzyme activity; type: biochemical, Anabaena; settings: 1 mM Ornidazole
Experimental: (§1) Rubisco was assayed as described by Marcus et al. (2005, ibid) and Snir et al. (2006, ibid). Phospho-ribulose kinase was assayed by conversion of phospho-ribulose to RuBP, which was determined by Rubisco dependent carboxylation with radiolabeled ^14CO2. Plant or cyanobacterial extract was incubated with medium containing 50 mM Hepes pH 8, 10 mM MgCl2, 20 mM NaH^14CO3, 1 mM DTT, 0.5 mM ribose-5-phosphate, ribose-5-phosphate isomerase and activated Rubisco. Phosphoglycerate kinase, GAPDH, FBPase and SBPase were determined as described by Leegood (Leegood R C., 1990. In: Methods in plant biochemistry, Vol 3, pp 15-37, Academic Press).
(§2) However, analysis of Ornidazole effect on various enzymes of the Calvin cycle in Anabaena including ribulose-bisphosphate carboxylase/oxygenase (Rubisco), phosphoglycerate kinase, glyceraldehyde-3-phosphate dehydrogenase (GAPDH), triose-phosphate isomerase, aldolase, fructose and sedoheptulose bisphosphatase and phosphoribulose kinase, has shown inhibition of GAPDH and triose-phosphate isomerase (Table 2).

Rubisco = molecular target: T1, Rubisco (Nostoc sp., UniProt P00879); experiment: Calvin cycle enzyme activity; type: biochemical, Anabaena; settings: 1 mM Ornidazole
T1 construct: endogenous in cells; host or cells: Anabaena PCC7120 extract
Experimental: as §1, §2

GAPDH = experiment: Calvin cycle enzyme activity; type: biochemical, Anabaena; settings: 1 mM Ornidazole
Experimental: as §1, §2

Phosphglycerate kinase = molecular target: T2, Phosphglycerate kinase (Nostoc sp., UniProt Q8YPR1); experiment: Calvin cycle enzyme activity; type: biochemical, Anabaena; settings: 1 mM Ornidazole
T2 construct: endogenous in cells; host or cells: Anabaena PCC7120 extract
T2 sequence (Q8YPR1 1-400): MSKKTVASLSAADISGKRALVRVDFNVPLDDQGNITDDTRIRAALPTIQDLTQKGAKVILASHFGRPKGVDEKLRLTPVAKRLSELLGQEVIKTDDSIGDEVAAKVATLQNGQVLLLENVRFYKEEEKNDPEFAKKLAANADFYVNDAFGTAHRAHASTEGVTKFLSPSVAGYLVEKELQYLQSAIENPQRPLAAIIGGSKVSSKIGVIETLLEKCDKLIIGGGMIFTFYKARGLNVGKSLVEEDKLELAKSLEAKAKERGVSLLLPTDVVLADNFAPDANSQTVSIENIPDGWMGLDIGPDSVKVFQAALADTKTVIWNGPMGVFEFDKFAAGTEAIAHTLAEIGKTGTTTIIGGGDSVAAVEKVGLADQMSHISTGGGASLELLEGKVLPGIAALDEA
Experimental: as §1, §2

Phosphoribulose kinase = experiment: Calvin cycle enzyme activity; type: biochemical, Anabaena; settings: 1 mM Ornidazole
Experimental: as §1, §2

Fructose bisphosphatase = experiment: Calvin cycle enzyme activity; type: biochemical, Anabaena; settings: 1 mM Ornidazole
Experimental: as §1, §2

[3] = test system: Sedoheptulose bisphosphatase; experiment: Calvin cycle enzyme activity; type: biochemical, Anabaena; settings: 1 mM Ornidazole
Experimental: as §1, §2

In the case of `Cc1ncc([N+](=O)[O-])n1CC(O)CCl` (stereo not drawn) [Ornidazole, 1-chloro-3-(2-methyl-5-nitro-1H-imidazol-1-yl)propan-2-ol], the “Ornidazole concentration in medium” value [1] is listed as “remained stable”, the “inhibition of enzyme activity” value [2] is listed as “inhibits the activity” and the non-photochemical quenching (Lemna) is listed as “increased”. For the same compound, the photosynthetic quantum yield (Lemna) was “decreased significantly”, the Activity (Aldolase) was 120 μmol × mg^−1chl × h^−1 and the Activity (Rubisco) was 74.6 μmol × mg^−1chl × h^−1. The Activity (GAPDH) was 1.77 μmol × mg^−1chl × h^−1, the “inhibition of enzyme activity” value (GAPDH) was 98%-100 and the Activity (Phosphglycerate kinase) was 57 μmol × mg^−1chl × h^−1. For the same compound, the Activity (Phosphoribulose kinase) was 66.7 μmol × mg^−1chl × h^−1, the Activity (Fructose bisphosphatase) was 71 μmol × mg^−1chl × h^−1 and the Activity [3] was 62 μmol × mg^−1chl × h^−1.
